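1) Cells in 96-well plates. 2) Compound, 48 h, 5 concentrations. 3) Linear interpolation between surrounding doses. 4) Unreached endpoint = highest concentration. Abbreviation: GI50, concentration required for 50% inhibition of growth.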 Active and inactive are the calls of the source. Rule as the data show it: active = GI50 up to about 1.1 µM and inactive = higher.
Columns and labels:
Assay in all cases: DTP human tumour cell line panel, 48 h
HCC 2998 = tested on: HCC 2998
Hs-578T = tested on: Hs-578T
UACC-257 = tested on: UACC-257
OVCAR-4 = tested on: OVCAR-4
SK-MEL-5 = tested on: SK-MEL-5
SK-MEL-28 = tested on: SK-MEL-28
SR = tested on: SR
Malme-3M = tested on: Malme-3M
UO-31 = tested on: UO-31
SF-295 = tested on: SF-295
SNB-19 = tested on: SNB-19
A549 = tested on: A549
ACHN = tested on: ACHN
KM12 = tested on: KM12
MDA-MB-435 = tested on: MDA-MB-435
IGROV-1 = tested on: IGROV-1
SW-620 = tested on: SW-620
M14 = tested on: M14
NCI-H226 = tested on: NCI-H226
T47D = tested on: T47D

Row | Structure (SMILES) | GI50 (HCC 2998) | GI50 (Hs-578T) | GI50 (UACC-257) | GI50 (OVCAR-4) | GI50 (SK-MEL-5) | GI50 (SK-MEL-28) | GI50 (SR) | GI50 (Malme-3M) | GI50 (UO-31) | GI50 (SF-295) | GI50 (SNB-19) | GI50 (A549) | GI50 (ACHN) | GI50 (KM12) | GI50 (MDA-MB-435) | GI50 (IGROV-1) | GI50 (SW-620) | GI50 (M14) | GI50 (NCI-H226) | GI50 (T47D)
1 | CC[C@@]1(O)C(=O)OCc2c1cc1n(c2=O)Cc2cc3c(N)cccc3nc2-1 [9-AMINOCAMPTOTHECIN] | 0.111 µM (active) | 4.22 µM (inactive) | 0.0571 µM (active) | 0.238 µM (active) | 0.0118 µM (active) | 0.177 µM (active) | < 0.215 µM (active) | 0.0785 µM (active) | 0.0175 µM (active) | < 0.01 µM (active) | < 0.01 µM (active) | 0.0188 µM (active) | < 0.01 µM (active) | 0.23 µM (active) | 0.118 µM (active) | 0.246 µM (active) | 0.0321 µM (active) | 0.0113 µM (active) | 0.0102 µM (active) | –
2 | Oc1c(OCc2nnc(CCCCCCCCc3nnc(COc4ccc5ccccc5c4O)o3)o2)ccc2ccccc12 | > 100 µM (inactive) | – | > 100 µM (inactive) | > 100 µM (inactive) | > 100 µM (inactive) | > 100 µM (inactive) | – | > 100 µM (inactive) | 59.6 µM (inactive) | > 100 µM (inactive) | 39.9 µM (inactive) | 57.3 µM (inactive) | > 100 µM (inactive) | > 100 µM (inactive) | > 100 µM (inactive) | – | > 100 µM (inactive) | > 100 µM (inactive) | > 100 µM (inactive) | –
3 | CC1(C)OC2COC3([C@@H]4OC(C)(C)O[C@@H]4CO)OC(C)(C)OC3C2O1 (some centres undefined) | > 100 µM (inactive) | – | > 100 µM (inactive) | > 100 µM (inactive) | > 100 µM (inactive) | > 100 µM (inactive) | > 100 µM (inactive) | – | > 100 µM (inactive) | > 100 µM (inactive) | > 100 µM (inactive) | > 100 µM (inactive) | > 100 µM (inactive) | > 100 µM (inactive) | > 100 µM (inactive) | > 100 µM (inactive) | > 100 µM (inactive) | > 100 µM (inactive) | > 100 µM (inactive) | > 100 µM (inactive)
4 | O/N=C1/CCC/C1=C\c1ccccc1 | > 100 µM (inactive) | – | > 100 µM (inactive) | > 100 µM (inactive) | > 100 µM (inactive) | > 100 µM (inactive) | 12.4 µM (inactive) | > 100 µM (inactive) | > 100 µM (inactive) | > 100 µM (inactive) | > 100 µM (inactive) | > 100 µM (inactive) | > 100 µM (inactive) | > 100 µM (inactive) | – | > 100 µM (inactive) | > 100 µM (inactive) | > 100 µM (inactive) | > 100 µM (inactive) | –
5 | Cc1cn(C(C)OCCN2C(=O)c3ccccc3C2=O)c(=O)[nH]c1=O (centres undefined) | > 100 µM (inactive) | – | > 100 µM (inactive) | > 100 µM (inactive) | > 100 µM (inactive) | > 100 µM (inactive) | > 100 µM (inactive) | – | > 100 µM (inactive) | > 100 µM (inactive) | > 100 µM (inactive) | > 100 µM (inactive) | > 100 µM (inactive) | > 100 µM (inactive) | > 100 µM (inactive) | > 100 µM (inactive) | > 100 µM (inactive) | > 100 µM (inactive) | > 100 µM (inactive) | > 100 µM (inactive)
6 | Nc1ccn(C2OC(CO)C(O)C2(F)F)c(=O)n1 (centres undefined) | 0.728 µM (active) | – | 0.312 µM (active) | – | 0.436 µM (active) | – | 0.158 µM (active) | 0.63 µM (active) | 0.0658 µM (active) | 0.254 µM (active) | 0.129 µM (active) | 0.055 µM (active) | – | 39.4 µM (inactive) | 0.384 µM (active) | 0.301 µM (active) | 0.759 µM (active) | 0.0313 µM (active) | 0.706 µM (active) | 0.387 µM (active)
7 | CC(=O)OC(COc1ccc2c(c1)[n+]([O-])nc(N)[n+]2[O-])CN1CCCCC1 (centres undefined) | 8.71 µM (inactive) | – | 12.5 µM (inactive) | 30.7 µM (inactive) | 3.78 µM (inactive) | 24.5 µM (inactive) | 12.2 µM (inactive) | 9.79 µM (inactive) | 25.3 µM (inactive) | – | 22.3 µM (inactive) | 15.3 µM (inactive) | 6.79 µM (inactive) | 13.1 µM (inactive) | 36 µM (inactive) | – | 17.1 µM (inactive) | 16.2 µM (inactive) | 15.3 µM (inactive) | –
8 | CC(C)c1c2[nH]c3ccccc3c2c(C(C)C)c2[nH]c3ccccc3c12 | > 34.8 µM (inactive) | – | > 100 µM (inactive) | > 45.3 µM (inactive) | > 100 µM (inactive) | > 100 µM (inactive) | 24.7 µM (inactive) | > 51.4 µM (inactive) | > 100 µM (inactive) | > 65.9 µM (inactive) | > 100 µM (inactive) | > 100 µM (inactive) | 91.8 µM (inactive) | 29.9 µM (inactive) | – | > 100 µM (inactive) | > 82 µM (inactive) | > 74.8 µM (inactive) | > 47.3 µM (inactive) | –
9 | COC(=O)c1ccccc1Nc1ccccc1C(=O)OC | – | 20.8 µM (inactive) | > 100 µM (inactive) | 48.9 µM (inactive) | 54.7 µM (inactive) | > 100 µM (inactive) | – | 37.9 µM (inactive) | – | 39.4 µM (inactive) | > 100 µM (inactive) | 93.1 µM (inactive) | > 100 µM (inactive) | > 100 µM (inactive) | > 100 µM (inactive) | 89.3 µM (inactive) | > 100 µM (inactive) | > 100 µM (inactive) | 23.7 µM (inactive) | 44.2 µM (inactive)
10 | Nc1nc2c3c(ncn3CC(O)CO2)n1 (centres undefined) | > 100 µM (inactive) | – | > 100 µM (inactive) | > 100 µM (inactive) | > 100 µM (inactive) | > 100 µM (inactive) | > 100 µM (inactive) | > 100 µM (inactive) | > 100 µM (inactive) | > 100 µM (inactive) | > 100 µM (inactive) | > 100 µM (inactive) | > 100 µM (inactive) | > 100 µM (inactive) | – | > 100 µM (inactive) | > 100 µM (inactive) | > 100 µM (inactive) | > 100 µM (inactive) | –
11 | Cn1c(=O)sc2cc(C(=S)N3CCN(c4ccccc4)CC3)ccc21 | – | 55.8 µM (inactive) | > 100 µM (inactive) | – | > 100 µM (inactive) | 97.1 µM (inactive) | 6.67 µM (inactive) | 42.3 µM (inactive) | – | 19.9 µM (inactive) | 45.3 µM (inactive) | – | 70.3 µM (inactive) | > 100 µM (inactive) | > 100 µM (inactive) | 46.5 µM (inactive) | > 100 µM (inactive) | > 100 µM (inactive) | 55.3 µM (inactive) | –
12 | c1ccc2c(c1)N=C(NC1CCCCC1)CCN2 | – | > 100 µM (inactive) | > 100 µM (inactive) | > 100 µM (inactive) | > 100 µM (inactive) | > 100 µM (inactive) | – | > 100 µM (inactive) | > 100 µM (inactive) | > 100 µM (inactive) | > 100 µM (inactive) | > 100 µM (inactive) | > 100 µM (inactive) | > 100 µM (inactive) | > 100 µM (inactive) | 33.1 µM (inactive) | > 100 µM (inactive) | > 100 µM (inactive) | > 100 µM (inactive) | –
13 | Cc1ccc(NC(=O)CCc2nc(N)nc(N)c2-c2ccccc2)cc1C | > 100 µM (inactive) | – | > 100 µM (inactive) | > 100 µM (inactive) | > 100 µM (inactive) | > 100 µM (inactive) | > 100 µM (inactive) | > 100 µM (inactive) | > 100 µM (inactive) | > 100 µM (inactive) | > 100 µM (inactive) | > 100 µM (inactive) | > 100 µM (inactive) | > 100 µM (inactive) | – | > 100 µM (inactive) | > 100 µM (inactive) | > 100 µM (inactive) | > 100 µM (inactive) | –
14 | O=C(CCl)N1CCN(c2ccccn2)CC1 | 19.4 µM (inactive) | 42.8 µM (inactive) | 30.3 µM (inactive) | 15.6 µM (inactive) | 18.1 µM (inactive) | 20 µM (inactive) | 34.9 µM (inactive) | 16.8 µM (inactive) | 21.8 µM (inactive) | > 10 µM (inactive) | 57.1 µM (inactive) | > 10 µM (inactive) | 31.6 µM (inactive) | 34.5 µM (inactive) | – | 21.3 µM (inactive) | 23.8 µM (inactive) | 16.6 µM (inactive) | – | 13.2 µM (inactive)
15 | O=C(C[n+]1ccccc1)N/N=C(/CCC(=O)N(Cc1ccccc1)Cc1ccccc1)CC(=O)c1ccccc1 | > 100 µM (inactive) | – | > 100 µM (inactive) | > 100 µM (inactive) | > 100 µM (inactive) | > 100 µM (inactive) | > 100 µM (inactive) | > 100 µM (inactive) | > 100 µM (inactive) | > 100 µM (inactive) | > 100 µM (inactive) | > 100 µM (inactive) | > 100 µM (inactive) | > 100 µM (inactive) | – | > 100 µM (inactive) | > 100 µM (inactive) | > 100 µM (inactive) | > 100 µM (inactive) | –
16 | Cc1cc(S(N)(=O)=O)c(SCc2nc(N)nc(N(C)C)n2)cc1Cl | > 10 µM (inactive) | > 10 µM (inactive) | > 10 µM (inactive) | > 10 µM (inactive) | > 10 µM (inactive) | > 10 µM (inactive) | > 10 µM (inactive) | > 10 µM (inactive) | > 10 µM (inactive) | > 10 µM (inactive) | > 10 µM (inactive) | > 10 µM (inactive) | > 10 µM (inactive) | > 10 µM (inactive) | – | > 10 µM (inactive) | > 10 µM (inactive) | > 10 µM (inactive) | > 10 µM (inactive) | > 10 µM (inactive)

Source: ChEMBL document CHEMBL1201862, “PubChem BioAssay data set” (2004)
